Reference: PMC7920280, “The Multi-Targeting Ligand ST-2223 with Histamine H3 Receptor and Dopamine D2/D3 Receptor Antagonist Properties Mitigates Autism-Like Repetitive Behaviors and Brain Oxidative Stress in Mice” (International Journal of Molecular Sciences, 2021)

Legend:
Assay type in all cases: in vivo
BTBR and B6 mice [1] = assay: Marble burying task (MBT); details: MEM 5 mg/kg; for percentage of marbles buried vs vehicle-treated BTBR mice: i.p. 30-45 min before, ST-2223 2.5, 5 and 10 mg/kg, ARP 1 mg/kg; for percentage of marbles buried vs vehicle-treated B6 mice: i.p., ST-2223 2.5, 5, 10 mg/kg
Protocol: (§1) The drugs tested included ST-2223 [N-(4-(4-(2-methoxyphenyl)piperazin-1-yl)butyl)-6-(3-(piperidin-1-yl)propoxy)-2-naphthamide] that was designed and synthesized in the Institute of Pharmaceutical and Medicinal Chemistry, Heinrich Heine University Düsseldorf, Germany, and in accordance with previously described methodologies (Supplementary Materials). Aripiprazole (ARP) (1 mg/kg, i.p.) and memantine (MEM, 5 mg/kg, i.p.), as reference drugs, were purchased from Sigma-Aldrich (St. Louis, MO, USA). The CNS-penetrant H3R agonist (R)-α-methylhistamine (RAM, 10 mg/kg, i.p.) was purchased from Sigma-Aldrich, St. Louis, MO, USA. T. Protease and the phosphatase inhibitor cocktail were procured from Thermo Scientific, USA. The assay kit for reduced glutathione (GSH) was obtained from Sigma-Aldrich (St. Louis, MO, USA). The lipid peroxidation assay kit for estimation of malondialdehyde (MDA) was purchased from North West Life Science (Vancouver, WA, USA). The assay kits for superoxide dismutase (SOD) and catalase (CAT) were purchased from Cayman Chemical (Ann Arbor, MI, USA). The drugs were prepared daily using 1% dimethyl sulfoxide (DMSO) in 0.9% saline, for intraperitoneal (i.p.) administration at a volume of 10 mL/kg of body weight. Vehicle treatment consisted of 1% DMSO in 0.9% normal saline. All drugs were i.p. administered 30 min before the behavioral test. The doses of these drugs were chosen based on previous reports. Neurobehavioral assessment was performed blindly with respect to experimental group and drug administration.
The MBT is used for testing repetitive and compulsive behaviors as it accurately reflects repetitive digging behavior [95, 96]. The test was performed as described previously, with slight modifications. Briefly, cages (26 cm × 48 cm × 20 cm) were filled with fresh, unscented mouse bedding material to a depth of 5 cm, on top of which 20 marbles were placed in 4 rows of 5 marbles each (15 mm diameter). Before placing the marbles, the bedding surface was leveled by placing another cage of the same size onto the surface of the bedding and then each mouse was individually added for 10 min habituation. After habituation, the mouse was removed, and the marbles were carefully overlaid. The same mouse was then returned to its designated test cage and allowed to explore for 30 min. The total number of marbles buried (>50% marble covered by the bedding material) was determined at the end of the session.

BTBR and B6 mice [2] = assay: Open field test (OFT): locomotor activity and anxiety levels; details: i.p.; for total distance travelled (OFT) / time spent in the periphery (OFT), effect of treatment: B6 and BTBR mice; for total distance travelled (OFT) / time spent in the central arena (OFT) vs vehicle-treated B6 mice / time spent in center (OFT) vs vehicle-treated BTBR mice: ST-2223 2.5, 5 and 10 mg/kg, MEM 5 mg/kg, ARP 1 mg/kg; for time spent in the periphery (OFT), effect of treatment: ST-2223 2.5, 5 or 10 mg/kg, MEM, ARP
Protocol: as §1
The open field test (OFT) systematically evaluates exploration behaviors executed in a novel open field (considered as a novel environment), as an independent control for the effects of the drugs on physical activity that could confound the interpretation of the results from the self-grooming, anxiety and spontaneous alternation. Mice were allowed to freely explore an open-field arena (45 × 45 × 30 cm), to assess general locomotor activity, and anxiety-related behaviors. The center arena was defined as the central 23 × 23 cm area. Mice were given 5 min to habituate in the center area of the arena before the recording started for the actual behavioral assessments. Recording lasted for 10 min using charge-coupled device (CCD) camera-assisted motion tracking apparatus and software (EthoVision 3.1, Noldus Information Technology, The Netherlands), and the total distance moved in the whole arena, time spent in the center and periphery were recorded. Test chambers were cleaned with 70% ethanol after each trial and were allowed to dry until ethanol evaporation and odor dissipation had occurred. When interpreting the results observed in this assessment, less time spent in the center was considered as an indicator for high levels of anxiety-like behaviors and total distance travelled signified the overall locomotor activity of tested animals.

BTBR and B6 mice [3] = assay: Self-grooming paradigm (SGP); details: for time spent self-grooming vs vehicle-treated B6 mice / time spent self-grooming vs vehicle-treated BTBR mice: i.p., MEM 5 mg/kg, ARP 1 mg/kg; for time spent self-grooming vs vehicle-treated B6 mice: ST-2223 2.5, 5 and 10 mg/kg; for time spent self-grooming vs vehicle-treated BTBR mice: ST-2223 5 and 10 mg/kg
Protocol: as §1
In the SGP test, mice were scored for spontaneous grooming behaviors. […] To measure SGP, each mouse was placed individually in a standard clear plastic cage (28 cm wide × 17 cm long × 12 cm high) for a total of 20 min. Mice were allowed to freely explore the cage for the entire test, the first 10 min served as a habituation period. After 10 min habituation, each mouse was scored with a stopwatch for 10 min for cumulative time spent grooming all body regions. Grooming behavior included head washing, body grooming, genital/tail grooming and paw and leg licking. The observer sat approximately 1 m from the test cage during the second 10 min of testing.

BTBR and B6 mice [4] = assay: Spontaneous alternation behavior (SAB), Y maze; details: i.p., ST-2223 2.5, 5 and 10 mg/kg, MEM 5 mg/kg, ARP 1 mg/kg
Protocol: as §1
The SAB test is based on the exploratory strategy of rodents to explore a new environment. In examining repetitive behaviors, the Y maze test took advantage of the rodents’ natural tendency to spontaneously alternate or choose a different arm of the maze instead of the one they visited on their previous entry (i.e., least recently visited arm). A decrease in the percentage alternation can also be attributed to same arm repeated visits. Spontaneous alternation behavior was measured on a Y maze apparatus, as previously described, with slight modifications. The Y maze composed of three arms (30 cm × 6 cm × 15 cm), where the arms were labeled with letters: A, B, or C. The test mouse was placed in the center of the maze and was allowed to freely explore the maze for 8 min. The number of entries into each arm and the total number of entries were recorded by the observer. A spontaneous alternation was defined as successive entry into three arms on an overlapping triplet set. Percentage spontaneous alternation was calculated as the number of spontaneous alternations (actual alternations) over the total number of entries (possible alternations). Two arm entries were subtracted from the denominator because an alternation required at least 3 entries. The apparatus was cleaned with 70% alcohol solution after each mouse was tested. (1) Percentage spontaneous alternations=Total alternations/(Total arm entries − 2) ×100

O=C1CCc2ccc(OCCCCN3CCN(c4cccc(Cl)c4Cl)CC3)cc2N1 [ARP, aripiprazole]
percentage of marbles buried vs vehicle-treated BTBR mice (BTBR and B6 mice [1]): significantly reduced
total distance travelled (OFT) (BTBR and B6 mice [2]): did not show any alteration
time spent in the periphery (OFT), effect of treatment (BTBR and B6 mice [2]): no significant effect
time spent in the central arena (OFT) vs vehicle-treated B6 mice (BTBR and B6 mice [2]): did not alter
time spent in center (OFT) vs vehicle-treated BTBR mice (BTBR and B6 mice [2]): significantly increased
time spent self-grooming vs vehicle-treated B6 mice (BTBR and B6 mice [3]): did not alter
percentage of spontaneous alternation vs vehicle-treated B6 mice (BTBR and B6 mice [4]): did not alter
percentage of spontaneous alternation vs vehicle-treated BTBR mice (BTBR and B6 mice [4]): failed to significantly mitigate

CC12CC3CC(C)(C1)CC(N)(C3)C2 [MEM, memantine]
percentage of marbles buried vs vehicle-treated B6 mice (BTBR and B6 mice [1]): not significant
percentage of marbles buried vs vehicle-treated BTBR mice (BTBR and B6 mice [1]): significantly reduced
total distance travelled (OFT) (BTBR and B6 mice [2]): did not show any alteration
time spent in the periphery (OFT), effect of treatment (BTBR and B6 mice [2]): no significant effect
time spent in the central arena (OFT) vs vehicle-treated B6 mice (BTBR and B6 mice [2]): did not alter
time spent in center (OFT) vs vehicle-treated BTBR mice (BTBR and B6 mice [2]): failed to significantly mitigate
time spent self-grooming vs vehicle-treated B6 mice (BTBR and B6 mice [3]): significantly reduced
time spent self-grooming vs vehicle-treated BTBR mice (BTBR and B6 mice [3]; BTBR mice): significantly reduced
percentage of spontaneous alternation vs vehicle-treated B6 mice (BTBR and B6 mice [4]): did not alter
percentage of spontaneous alternation vs vehicle-treated BTBR mice (BTBR and B6 mice [4]): significantly increased

COc1ccccc1N1CCN(CCCCNC(=O)c2ccc3cc(OCCCN4CCCCC4)ccc3c2)CC1 [ST-2223, N-(4-(4-(2-methoxyphenyl)piperazin-1-yl)butyl)-6-(3-(piperidin-1-yl)propoxy)-2-naphthamide]
percentage of marbles buried vs vehicle-treated B6 mice (BTBR and B6 mice [1]): did not alter
percentage of marbles buried vs vehicle-treated BTBR mice (BTBR and B6 mice [1]): significantly decreased
total distance travelled (OFT) (BTBR and B6 mice [2]): did not show any alteration
time spent in the periphery (OFT), effect of treatment (BTBR and B6 mice [2]): no significant effect
time spent in the central arena (OFT) vs vehicle-treated B6 mice (BTBR and B6 mice [2]): did not alter
time spent in center (OFT) vs vehicle-treated BTBR mice (BTBR and B6 mice [2]): significantly increased
time spent self-grooming vs vehicle-treated B6 mice (BTBR and B6 mice [3]): did not alter
self-grooming behavior vs vehicle-treated BTBR mice (BTBR and B6 mice [3]; BTBR mice, ST-2223 2.5 mg/kg i.p.): failed to significantly mitigate
time spent self-grooming vs vehicle-treated BTBR mice (BTBR and B6 mice [3]; BTBR mice): significantly, and dose-dependently, decreased
percentage of spontaneous alternation vs vehicle-treated B6 mice (BTBR and B6 mice [4]): did not alter
percentage of spontaneous alternation vs vehicle-treated BTBR mice (BTBR and B6 mice [4]): significantly increased
